According to patent publication US9725477B2, “Platinum compounds of malonic acid derivative having leaving group containing amino or alkylamino” (BEIJING FSWELCOME TECHNOLOGY DEVELOPMENT CO., LTD, priority 2012, dated 2017):
Where a name gives a salt, the structure may show the parent alone. Read-outs that look alike come from different tables or passages of the source.

Key:
Lung cancer H292 = test: MTT cytotoxicity, lung cancer H292; format: cell-based
Testis cell ST = test: MTT cytotoxicity, testis cell ST; format: cell-based; settings: n = 6
gastric cancer MGC803 = test: MTT cytotoxicity, gastric cancer MGC803; format: cell-based; settings: n = 6
Esophagus cancer ECA109 = test: MTT cytotoxicity, esophagus cancer ECA109; format: cell-based; settings: n = 6
in vivo = settings: both, Kunming, mouse, in vivo, iv
Experimental: (§1) Kunming mice with 4˜6 weeks old and 18 g˜22 g by weight were taken, 50% males and 50% females. […] The condition of mortality and toxicity were observed after administration. Totally observing for 14 days, LD50 value was calculated using Bliss method according to the mortality.

[1] = MTT cytotoxicity, alveolar epithelial cells BEAS-2B; format: cell-based; settings: human, BEAS-2B alveolar epithelial cells; Alveolar epithelial cells BEAS-2B, MTT, n = 6
normal mice = test: in vivo; settings: for LD50 vALUE: Table 3, mice, single intravenous administration, 14 days observation; for LD50: Table 1, formula I compounds, method of test example 1
Experimental: as §1

Lung cancer Lewis = test: MTT cytotoxicity, lung cancer Lewis; format: cell-based
colon cancer SW480 = test: MTT cytotoxicity, colon cancer SW480; format: cell-based
[2] = system: Alveolar epithelial cells BEAS-2B; test: MTT cytotoxicity, alveolar epithelial cells BEAS-2B; format: cell-based
Lung cancer A549 = test: MTT cytotoxicity, lung cancer A549; settings: read-out: IC50 of anti-lung cancer A549; Table 1, formula I compounds; method of test example 2
Experimental: Cell morphologies were observed after being cultivated for 24 hours.

[3] = Lung cancer H292, MTT, n = 6, read-out: cytotoxicity IC50
[4] = compound of the example (salt form) in water
[5] = colon cancer SW480, MTT, n = 6, read-out: cytotoxicity IC50

CCN(CC)CCCCC1C(=O)[O][Pt][O]C1=O.NC1CCC(N)CC1.O=P(O)(O)O [Compound 23, 2-(4-diethylaminobutyl)-malonate•cis-1,4-cyclohexanediamine platinum (II) phosphate]
IC50 (Lung cancer H292; [3]): 14 µM | IC50 (Testis cell ST): 8 µM | IC50 (gastric cancer MGC803): 5 µM | solubility (Solubility in water; [4]): more than 300 mg/ml | IC50 (Esophagus cancer ECA109): 66 µM

[NH2][Pt]1([NH2])[O]C(=O)C(CCCCN2CCCCC2)C(=O)[O]1 [Compound 4, 2-(4-(1-piperidyl)-butyl)-malonate•cis-diamine platinum (II) phosphate]
LD50 (in vivo): 823 µmol/kg | solubility (Solubility in water; water): > 300 mg/mL

CC1CCCN1CCCCC1C(=O)[O][Pt]([NH2])([NH2])[O]C1=O (stereo not drawn) [Compound 10, 2-(4-(2-methyl-1-tetrahydropyrrolidinyl)-butyl)-malonate•cis-diamine platinum (II) phosphate]
LD50 (in vivo): 791 µmol/kg | solubility (Solubility in water; water): > 300 mg/mL | IC50 [1]: 3 µM

2-(4-di-n-propylaminobutyl)-malonate•cis-diamine platinum (II) phosphate [Compound 7]
IC50 (Lung cancer H292): 4 µM | LD50 vALUE (normal mice): 0.778 mmol/kg | IC50 (Lung cancer Lewis): 21 µM | IC50 (colon cancer SW480): 10 µM | IC50 [2]: 4 µM

CCN(CC)CCCCC1C(=O)[O][Pt]2([NH]CC(CO)(CO)C[NH]2)[O]C1=O.O=P(O)(O)O [Compound 21, 2-(4-diethylaminobutyl)-malonate•cis-1,3-(2,2-hydroxymethyl)-propanediamine platinum (II) phosphate]
IC50 (Lung cancer H292; [3]): 12 µM | IC50 (Testis cell ST): 13 µM | IC50 (gastric cancer MGC803): 5 µM | solubility (Solubility in water; [4]): more than 300 mg/ml

2-(4-diethylaminobutyl)-malonate•cis-ammonia•cyclopentylamine platinum (II) acetate [Compound 26]
IC50 (Lung cancer H292; [3]): 4 µM | IC50 (Testis cell ST): 11 µM | IC50 (gastric cancer MGC803): 1 µM | IC50 (Esophagus cancer ECA109): 91 µM

CN(C)C1CC(C2C(=O)[O][Pt]([NH2])([NH2])[O]C2=O)C1 (stereo not drawn) [Compound 6, 2-(3-dimethylaminocyclobutyl)-malonate•cis-diamine platinum (II) mesylate]
LD50 (in vivo): 756 µmol/kg | solubility (Solubility in water; water): > 300 mg/mL | IC50 [1]: 3 µM

2-(4-diethylaminobutyl)-malonate•cis-(2-aminomethyl-cyclopentylamine) platinum (II) acetate [Compound 27]
IC50 (Lung cancer H292; [3]): 4 µM | IC50 (Testis cell ST): 13 µM | IC50 (gastric cancer MGC803): 5 µM | IC50 (Esophagus cancer ECA109): 54 µM

CCN(CC)CCCCC1C(=O)[O][Pt]2([NH]CCC[NH]2)[O]C1=O.O=P(O)(O)O [Compound 18, 2-(4-diethylaminobutyl)-malonate•cis-(1,3-propanediamine) platinum (II) phosphate]
IC50 (Lung cancer H292; [3]): 8 µM | IC50 (Testis cell ST): 22 µM | IC50 (gastric cancer MGC803): 2 µM | solubility (Solubility in water; [4]): more than 300 mg/ml | IC50 (colon cancer SW480; [5]): 14 µM

[NH2][Pt]1([NH2])[O]C(=O)C(CCCCN2CCCC2)C(=O)[O]1 [Compound 5, 2-(4-(1-tetrahydropyrrolidinyl)-butyl)-malonate•cis-diamine platinum (II) phosphate]
LD50 (in vivo): 845 µmol/kg | solubility (Solubility in water; water): > 300 mg/mL | IC50 [1]: 2 µM

CCN(CC)CCCCC1C(=O)[O][Pt]2([NH]C3CCC3[NH]2)[O]C1=O.O=C(O)CCC(=O)O (racemic) [Compound 15, 2-(4-diethylaminobutyl)-malonate•cis-(1,2-trans-cyclobutanediamine) platinum (II) succinate]
IC50 (Lung cancer H292; [3]): 10 µM | IC50 (gastric cancer MGC803): 3 µM | IC50 (colon cancer SW480; [5]): 18 µM

2-(4-diethylaminobutyl)-malonate•cis-dicyclopentylamine platinum (II) acetate [Compound 25]
IC50 (Lung cancer H292; [3]): 6 µM | IC50 (Testis cell ST): 7 µM | IC50 (gastric cancer MGC803): 3 µM | IC50 (Esophagus cancer ECA109): 29 µM

CCN(CC)CCCCC1C(=O)[O][Pt]2([NH]CCCC[NH]2)[O]C1=O.O=P(O)(O)O [Compound 19, 2-(4-diethylaminobutyl)-malonate•cis-(1,4-butanediamine) platinum (II) phosphate]
IC50 (Lung cancer H292; [3]): 6 µM | IC50 (Testis cell ST): 13 µM | IC50 (gastric cancer MGC803): 5 µM | solubility (Solubility in water; [4]): more than 300 mg/ml | IC50 (colon cancer SW480; [5]): 23 µM

2-(4-ethyl aminobutyl)-malonate•cis-(1, 2-trans-cyclohexanediamine) platinum (II) phosphate [Compound 12]
IC50 (Lung cancer H292): 6 µM | LD50 vALUE (normal mice): 0.729 mmol/kg | IC50 (Lung cancer Lewis): 18 µM | IC50 (colon cancer SW480): 18 µM | IC50 [2]: 8 µM

CCN(CC)CCCCC1C(=O)[O][Pt]([NH2])([NH2])[O]C1=O [Compound 1, 2-(4-diethylaminobutyl)-malonate•cis-diamine platinum (II) acetate]
LD50 (in vivo): 746 µmol/kg | solubility (Solubility in water; water): > 300 mg/mL

C[N+](C)(C)CCCCC1C(=O)[O][Pt][O]C1=O.Cc1ccc(S(=O)(=O)[O-])cc1.N[C@@H]1CCCC[C@H]1N [Compound 29, 2-(4-trimethylaminobutyl)-malonate•cis-(1,2-trans-cyclohexanediamine) platinum(II) tosilate]
IC50 (Lung cancer H292; [3]): 7 µM | IC50 (Testis cell ST): 8 µM | IC50 (gastric cancer MGC803): 2 µM | IC50 (Esophagus cancer ECA109): 25 µM

NCCCCC1C(=O)[O][Pt]2([NH]C3CCCCC3[NH]2)[O]C1=O.O=P(O)(O)O (racemic) [Compound 11, 2-(4-aminobutyl)-malonate•cis-(1,2-trans-cyclohexanediamine) platinum (II) phosphate]
IC50 (Lung cancer H292): 5 µM | LD50 vALUE (normal mice): 0.803 mmol/kg | IC50 (Lung cancer Lewis): 49 µM | IC50 (colon cancer SW480): 21 µM | IC50 [2]: 2 µM

Cc1ccc(S(=O)(=O)O)cc1.O=C1[O][Pt]2([NH]C3CCCCC3[NH]2)[O]C(=O)C1CCCCN1CCCCC1 (racemic) [Compound 9, 2-(4-(1-piperidyl)-butyl)-malonate•cis-(1,2-trans-cyclohexanediamine) platinum (II) tosilate]
IC50 (Lung cancer H292): 8 µM | LD50 vALUE (normal mice): 0.725 mmol/kg | IC50 (Lung cancer Lewis): 50 µM | IC50 (colon cancer SW480): 14 µM | IC50 [2]: 2 µM

CCN(CC)CCCCC1C(=O)[O][Pt]2([NH]CC3(CCOCC3)C[NH]2)[O]C1=O.O=P(O)(O)O [Compound 24, 2-(4-diethylaminobutyl)-malonate•cis-1,3-(2,2-(4-oxacyclohexyl))-propanediamine•platinum (II) phosphate]
IC50 (Lung cancer H292; [3]): 3 µM | IC50 (Testis cell ST): 6 µM | IC50 (gastric cancer MGC803): 3 µM | solubility (Solubility in water; [4]): more than 300 mg/ml | IC50 (Esophagus cancer ECA109): 52 µM

CC1CCCN1CCCCC1C(=O)[O][Pt]2([NH]C3CCCCC3[NH]2)[O]C1=O (stereo not shown) [Compound 38]
LD50 (normal mice): 0.818 mmol/kg | IC50 (Lung cancer A549): 6 µM

O=C1[O][Pt]2([NH]C3CCCCC3[NH]2)[O]C(=O)C1CCCCN1CC=CC1 (stereo not shown) [Compound 35]
LD50 (normal mice): 0.762 mmol/kg | IC50 (Lung cancer A549): 4 µM

CN(CCCCC1C(=O)[O][Pt]([NH2])([NH2])[O]C1=O)Cc1ccc(Cl)cc1F [Compound 59]
LD50 (normal mice): 0.598 mmol/kg | IC50 (Lung cancer A549): 68 µM

CCN(CC)CCCCC1C(=O)[O][Pt]2([NH]CC[NH]2)[O]C1=O.Cc1ccc(S(=O)(=O)O)cc1 [Compound 17, 2-(4-diethylaminobutyl)-malonate•cis-(1,2-ethylenediamine) platinum (II) tosilate]
IC50 (Lung cancer H292; [3]): 4 µM | IC50 (Testis cell ST): 16 µM | IC50 (gastric cancer MGC803): 5 µM | solubility (Solubility in water; [4]): more than 300 mg/ml | IC50 (colon cancer SW480; [5]): 7 µM

2-(2-diethylaminobutyl)-malonate•cis-1,2-(1,2-dihydroxymethyl)-ethylenediamine platinum (II) phosphate [Compound 20]
IC50 (Lung cancer H292; [3]): 5 µM | IC50 (Testis cell ST): 11 µM | IC50 (gastric cancer MGC803): 4 µM | IC50 (Esophagus cancer ECA109): 17 µM

2-(4-diethylaminobutyl)-malonate•cis-(1, 2-trans-cyclopropanediamine) platinum (II) phosphate [Compound 16]
IC50 (Lung cancer H292; [3]): 5 µM | IC50 (Testis cell ST): 10 µM | IC50 (gastric cancer MGC803): 4 µM | IC50 (colon cancer SW480; [5]): 13 µM

CN(C)CCCCC1C(=O)[O][Pt][O]C1=O.NC1CCC(N)C1 [Compound 44]
LD50 (normal mice): 0.857 mmol/kg | IC50 (Lung cancer A549): 24 µM

CCN(CC)CCCCC1C(=O)[O][Pt]2([NH]CC3CCC3C[NH]2)[O]C1=O.O=P(O)(O)O (racemic) [Compound 22, 2-(4-diethylaminobutyl)-malonate•cis-1,4-(trans-2,3-cyclobutyl)-butanediamine platinum (II) phosphate]
IC50 (Lung cancer H292; [3]): 5 µM | IC50 (Testis cell ST): 14 µM | IC50 (gastric cancer MGC803): 7 µM | solubility (Solubility in water; [4]): more than 300 mg/ml | IC50 (Esophagus cancer ECA109): 102 µM

CCN(CC)CCCCC1C(=O)[O][Pt]2([NH]C3CCCC3[NH]2)[O]C1=O.O=P(O)(O)O (racemic) [Compound 14, 2-(4-diethylaminobutyl)-malonate•cis-(1,2-trans-cyclopentanediamine) platinum (II) phosphate]
IC50 (Lung cancer H292; [3]): 12 µM | LD50 vALUE (normal mice): 0.866 mmol/kg | IC50 (Lung cancer Lewis; Lung cancer Lewis, MTT, n = 6, read-out: cytotoxicity IC50): 36 µM | solubility (Solubility in water; [4]): more than 300 mg/ml | IC50 (colon cancer SW480; [5]): 17 µM | IC50 ([2]; Alveolar epithelial cells BEAS-2B, MTT, n = 6, read-out: cytotoxicity IC50): 5 µM

CN(CCCCC1C(=O)[O][Pt]2([NH]C3CCCCC3[NH]2)[O]C1=O)C1CCCC1 (stereo not shown) [Compound 43]
LD50 (normal mice): 0.841 mmol/kg | IC50 (Lung cancer A549): 5 µM

CCCCN(C)CCCCC1C(=O)[O][Pt]2([NH][C@H]3CCCC[C@H]3[NH]2)[O]C1=O (stereo partly shown) [Compound 60]
LD50 (normal mice): 0.875 mmol/kg | IC50 (Lung cancer A549): 9 µM
